Several values for one entry are separate records, joined by “and”; a condition that tells them apart may be missing. Identical values can stand only once. Like-named read-outs stand apart in the source and are kept apart here.
Legend:
SARS-CoV-2 [1] = assay: Replication-competent virus in supernatant (plaque assay); assay type: cell-based; conditions: Vero E6 cells, MOI 0.05, 2.5-10 μM, 24 h postinfection
3CLpro = 3CLpro (Severe acute respiratory syndrome coronavirus 2, UniProt P0DTD1); assay: 3CLpro fluorescence resonance energy transfer (FRET) assay; assay type: biochemical, SARS-CoV-2; conditions: for FRET-determined EC50 (3CLpro): normalized to untreated control, nonlinear regression
Method: The activity of 3CLpro was measured by FRET assay (BPS Bioscience, San Diego, CA, USA) according to the manufacturer’s instructions and as previously described ([34]). […] Wells without drugs or without 3CLpro were used as positive control of 3CLpro activity and blank control, respectively. After a 30-min incubation, the 3CLpro substrate was added to each well and the plate was stored for 4 h in the dark. The fluorescence signal was acquired on an Infinite 200 PRO (Tecan, Männedorf, Switzerland) using an excitation wavelength of 360 nm and a detection wavelength of 460 nm. Relative 3CLpro was expressed as percentage of the positive control after subtraction of the blank.

SARS-CoV-2 [2] = assay type: cell-based; conditions: 5 to 10 μM; MTT and crystal violet; Calu-3, T84, Vero E6
[3] = molecular target: spike protein and human ACE2 (Severe acute respiratory syndrome coronavirus 2, UniProt P0DTC2); assay: cell-based; design: species or system SARS-CoV-2; human; conditions: 1 h preincubation, luciferase after 24 h; read-out: IC50 of S-glycoprotein-mediated cell fusion
in vitro = assay type: cell-based; conditions: human; African green monkey
Method: Cell viability was evaluated by the MTT [3-(4,5-dimethylthiazol-2-yl)-2,5-diphenyl tetrazolium bromide] assay and by crystal violet staining as previously described ([76], [77]). Briefly, the MTT assay was conducted using the CellTiter 96 nonradioactive cell proliferation assay (MTT) (Promega; Madison, WI, USA). Cells were plated in a 96‐well plate at a concentration of 3 × 10^6 cells/mL in 100 μL of medium. The MTT solution (15 μL) was added to each well, and after 2 to 4 h, the reaction was stopped by the addition of 100 μL of 10% SDS. Absorbance values were acquired using an Infinite 200 PRO (Tecan, Männedorf, Switzerland) multimode plate reader at a 570-nm wavelength.
Data normality assumptions were tested by D’Agostino and Pearson normality test (for n > 3). Multiple-group comparisons were conducted by nonparametric Kruskal-Wallis test, followed by Dunn’s posttest, or by one-way or two-way analysis of variance (ANOVA) followed by Holm-Sidak or Dunnett posttests, respectively. Half-maximal inhibitory (IC50), effective (EC50), and cytotoxic (CC50) concentrations of the compounds were estimated by nonlinear regression after data normalization. […] Data analysis was conducted using GraphPad Prism v6 (GraphPad Software, San Diego, CA, USA). Synergy scores were calculated with the SynergyFinder web tool ([79]) using the Zero Interaction Potency (ZIP) model ([80]).

SARS-CoV-2 [4] = assay: microbe, parasite or virus in culture; assay type: cell-based
SARS-CoV-2 [5] = assay: SARS-CoV-2-infected Syrian hamsters
[6] = test system: Vero E6 cells transfected with the SARS-CoV-2 S-protein; assay: Syncytium formation assay; assay type: cell-based, African green monkey; conditions: 1, 5, 10 μM; 24 h posttransfection

Row | SMILES | FRET-determined EC50 (3CLpro) | Alveolar alterations: Alveolar edema (SARS-CoV-2 [5]; Day 3, single animal) | Alveolar alterations: Epithelial necrosis (SARS-CoV-2 [5]; Day 3, single animal) | Alveolar alterations: Type II hyperplasia (SARS-CoV-2 [5]; Day 3, single animal) | Pneumonia: Consolidated lung area (%) (SARS-CoV-2 [5]; Day 3, single animal) | Pneumonia: Inflammation score (SARS-CoV-2 [5]; Day 3, single animal) | Pneumonia: Lung area affected (%) (SARS-CoV-2 [5]; Day 3, single animal) | Vascular alterations: Endothelialitis (SARS-CoV-2 [5]; Day 3, single animal) | Vascular alterations: Perivascular edema (SARS-CoV-2 [5]; Day 3, single animal) | Vascular alterations: Perivascular lymphocytes (SARS-CoV-2 [5]; Day 3, single animal) | Alveolar alterations: Alveolar edema (SARS-CoV-2 [5]; Day 5, single animal) | Alveolar alterations: Epithelial necrosis (SARS-CoV-2 [5]; Day 5, single animal) | Alveolar alterations: Type II hyperplasia (SARS-CoV-2 [5]; Day 5, single animal) | Pneumonia: Consolidated lung area (%) (SARS-CoV-2 [5]; Day 5, single animal) | Pneumonia: Inflammation score (SARS-CoV-2 [5]; Day 5, single animal) | Pneumonia: Lung area affected (%) (SARS-CoV-2 [5]; Day 5, single animal) | Vascular alterations: Endothelialitis (SARS-CoV-2 [5]; Day 5, single animal) | Vascular alterations: Perivascular edema (SARS-CoV-2 [5]; Day 5, single animal) | Vascular alterations: Perivascular lymphocytes (SARS-CoV-2 [5]; Day 5, single animal) | EC50 (3CLpro) [µM] | also measured
1 | CC(C)c1nc(CN(C)C(=O)N[C@@H](CCN2CCOCC2)C(=O)N[C@H](CC[C@H](Cc2ccccc2)NC(=O)OCc2cncs2)Cc2ccccc2)cs1 [Cobicistat] | Could not be calculated | 2 and 0 | 1 and 0 and (1) | 1–2 and 0 | 20% and 0% and <5% | 2–3 and (1) and 1 | 30% and <5% and 5–10% | 2–3 and (1) and 1–2 | 1–2 and 0 | 1–2 and 0 | 3 and 2 and 2–3 | 2 and 1 | 2–3 and 3 and 1–2 | 50% and 30% and 35% | 3 and 2–3 | 80% and 70% and 50% | 2–3 and 3 | 2–3 and 2 | 2 and 1 | – | Levels of replication-competent virus in supernatant (SARS-CoV-2 [1]): able to decrease the levels of replication-competent virus; Effect on catalytic activity of 3CLpro (3CLpro; FRET assay, Fig. S3A): inactive; Viability of infected cells (SARS-CoV-2 [2]): partially rescue viability of infected cells; IC50 [3]: 3.83 µM and 3.8 µM; CC50 at 48 h (in vitro): 38.7 to 53 µM; Effect on intracellular and supernatant viral RNA (SARS-CoV-2 [4]; Calu-3 cells, time course, low-micromolar concentrations, qPCR N1 and N2 primers): dose-dependent inhibitory effect; IC50 (SARS-CoV-2 [4]; Severe acute respiratory syndrome coronavirus 2, Calu-3, Vero E6 and T84 cells, MOI 0.05 and 0.5, treated 2 h postinfection, 48 h, read-out: IC50 (viral RNA release in supernatant), range): 0.58 to 8.76 µM; Tolerability of dosing regimen in vivo (SARS-CoV-2 [5]; 50 mg/kg): well tolerated; Infectious progeny in the lung (PFU, plaque assay) (SARS-CoV-2 [5]; cobicistat 50 mg/kg oral daily, remdesivir 15 mg/kg i.p. daily, days 3 and 5 p.i.): significant decrease; Syncytium formation [6]: decreased syncytium formation
2 | CC(C)CN(C[C@@H](O)[C@H](Cc1ccccc1)NC(=O)O[C@H]1CO[C@H]2OCC[C@H]21)S(=O)(=O)c1ccc(N)cc1 [Darunavir] | Could not be calculated | – | – | – | – | – | – | – | – | – | – | – | – | – | – | – | – | – | – | – | –
3 | Cc1cccc(C)c1OCC(=O)N[C@@H](Cc1ccccc1)[C@@H](O)C[C@H](Cc1ccccc1)NC(=O)[C@H](C(C)C)N1CCCNC1=O [Lopinavir] | – | – | – | – | – | – | – | – | – | – | – | – | – | – | – | – | – | – | – | 219 | –
4 | Cc1c(O)cccc1C(=O)N[C@@H](CSc1ccccc1)[C@H](O)CN1C[C@H]2CCCC[C@H]2C[C@H]1C(=O)NC(C)(C)C [Nelfinavir] | Could not be calculated | – | – | – | – | – | – | – | – | – | – | – | – | – | – | – | – | – | – | – | –
5 | CCC(CC)COC(=O)[C@H](C)N[P@](=O)(OC[C@H]1O[C@@](C#N)(c2ccc3c(N)ncnn23)[C@H](O)[C@@H]1O)Oc1ccccc1 [Remdesivir, remdesivir] | – | 0 | (1) and 0 | 0 | 0% | (1) | 5% and <5% | 0 | (1) and 0 | 0 and (1) | 1 and 1–2 and 2 | 2 | 1 and 1–2 | 25% and 35% and 30% | 2–3 | 40% and 70% | 2–3 and 2 | (1) and 1 and 2 | 2 and 1–2 | – | IC50 (SARS-CoV-2 [4]; Severe acute respiratory syndrome coronavirus 2, Vero C1008, Vero E6 cells, MOI 0.5, 48 h, read-out: IC50 (viral RNA expression in supernatant)): 0.74 µM; IC50 (SARS-CoV-2 [4]; Severe acute respiratory syndrome coronavirus 2, T84 cells, MOI 0.5, 48 h, read-out: IC50 (viral RNA expression in supernatant)): 0.35 µM
6 | CCC[C@@]1(CCc2ccccc2)CC(O)=C([C@H](CC)c2cccc(NS(=O)(=O)c3ccc(C(F)(F)F)cn3)c2)C(=O)O1 [Tipranavir] | – | – | – | – | – | – | – | – | – | – | – | – | – | – | – | – | – | – | – | 47 | –

Source: article PMC8941859, “The FDA-Approved Drug Cobicistat Synergizes with Remdesivir To Inhibit SARS-CoV-2 Replication In Vitro and Decreases Viral Titers and Disease Progression in Syrian Hamsters” (mBio, 2022)
